Test results published in patent US20120143074A1, “METHOD OF EVALUATING SUITABILITY FOR DRUG THERAPY FOR THE PREVENTION AND TREATMENT OF ANXIETY DISORDERS USING CHOLINERGIC TYPE II THETA RHYTHM” (priority 2009, published 2012).

Columns and labels:
[1] = test system: hippocampus acetylcholine concentration; conditions: 0.5 mg/kg of rivastigmine; microdialysis; cited from earlier work
PLC-β4^−/− mice [2] = test: Open-field thigmotaxis test after rivastigmine; type: in vivo; conditions: 0.5 mg/kg i.p., 60 min before test
Method: Open field thigmotaxis was assessed by placing mice in the center of an open field apparatus (40×40×40 cm) under dim lighting. During a 10 min observation period, locomotor activity, number of central crosses, and time spent in the central sector of the open field were recorded and analyzed by PC-based video behavior assay system (TSE, Bad Homburg, Germany). Thigmotaxis index was defined as a ratio of the number of entries into the central part of a testing arena to the locomotor activity. The thigmotaxis index was calculated for each mouse separately and used to calculate means and SEMs for a given experimental group (Treit, D. & Fundytus, M., Pharmacol. Biochem. Behav. 31, 959-962, 1988; Sienkiewicz-Jarosz, H. et al., J Neural Transm. 107, 1403-1412, 2000).
(§1) rivastigmine (Novartis Pharma, Basel, Switzerland), which is a cholinergic enhancer, was dissolved in saline. Animals were injected intraperitoneally (i.p.) with 0.5 mg/kg rivastigmine 60 min before the start of anxiety behavioral test (total volume, 5 ml/kg). […] Both PLC-β4^+/+(WT) and PLC-β4^−/−(KO) mice were randomly assigned to one of the following treatment groups: (1) WT-sham (wild-type mice with intraperitoneal injection of saline; n=10), (2) KO-sham (PLC-β4^−/− mice with intraperitoneal injection of saline; n=10), and (3) KO-rivastigmine (PLC-β4^−/− mice with intraperitoneal injection of rivastigmine; n=10). rivastigmine is a second-generation carbamate-based reversible non-competitive AChE and butyrylChE (BuChE) inhibitor. The reason for choosing the inhibitor is that an inhibitory effect sustains for a long period of time, the inhibitor is specific to the brain (Enz, A. et al., Prog. Brain Res. 98, 431-438, 1993), and the inhibitor selectively increases cholin activity in hippocampus and cortex (Weinstock, M., et al., J. Neural Transm. Suppl. 43, 219-225, 1994).
(§2) Whether rivastigmine administration could also rescue the increased anxiety phenotype of PLC-β4^−/− mice was investigated. To this end, rivastigmine (0.5 mg/kg, i.p.) was injected into PLC-β4^−/− mice and, 60 min after injection, the rivastigmine treated group was subjected to three anxiety behavioral assays.

PLC-β4^−/− mice [3] = test: Light/dark transition test after rivastigmine; type: in vivo; conditions: 0.5 mg/kg i.p., 60 min before test
From the text: The apparatus used for the light/dark transition test consisted of a cage (25×40×20 cm) divided into two compartments by a black partition containing a small opening that allows the mouse to move from one compartment to the other. One compartment, comprising two-thirds of the surface area, was made of white plastic and was brightly illuminated; the adjoining smaller compartment was black and dark. Mice were placed in the dark compartment and allowed to move freely between the two chambers for 5 min. The number of transitions between the two compartments, time spent in each chamber, and latency to the first transition were recorded (Welch, J. M. et al., Nature 448, 894-900, 2007).
(§3) rivastigmine (Novartis Pharma, Basel, Switzerland), which is a cholinergic enhancer, was dissolved in saline. Animals were injected intraperitoneally (i.p.) with 0.5 mg/kg rivastigmine 60 min before the start of anxiety behavioral test (total volume, 5 ml/kg). […]

PLC-β4^−/− mice [4] = test: Elevated plus-maze after rivastigmine; type: in vivo; conditions: 0.5 mg/kg i.p., 60 min before test
Method: The elevated plus-maze consists of two open and two enclosed arms of the same size (45^┘ 5 cm) with walls 15 cm high. The arms, constructed of black acrylic, radiate from a central platform (5^┘ 5 cm) to form a plus sign. The entire apparatus was elevated to a height of 30 cm above floor level. Each mouse was placed in the central platform facing one of the open arms. The number of entries into the open and closed arms and the time spent on the open and closed arms were recorded during a 5 min test period (Parks, C. L. et al., Proc. Natl. Acad. Sci. USA 95, 10734-10739; 1998; Ramboz, S. et al., Proc. Natl. Acad. Sci. USA 95, 14476-14481, 1998; Gross, C. et al., Nature 416, 396-400, 2002).
as §3

PLC-β4^−/− mice [5] = test: Hippocampal EEG theta rhythm in a novel environment after rivastigmine; type: in vivo; conditions: 0.5 mg/kg i.p.
Method: For electrode implantation, the animals were anesthetized with pentobarbital ([…], i.p.) and held in a stereotaxic apparatus with bregma and lambda in the same horizontal plane. Hippocampal EEG recordings were performed using Teflon-coated tungsten electrodes (150 um) implanted in the hippocampal fissure with grounding over the cerebellum (from bregma, 2.0 mm anteroposterior, 1.2 mm mediolateral, and 1.8 mm dorsoventral). The position of the electrodes was verified by light microscopy in Nissl-stained sections according to published protocols. Field potential was amplified (×1,000), bandpass-filtered (bandpass-filtered) (0.1-100 Hz), digitized with 12-bit resolution continuously at 1 kHz sampling, and recorded on a personal computer.
The EEG EEG data were collected in 4 s segments and fast-Fourier transformed (FFT). The data were continuously monitored for movement artifacts, and the recording of each segment was manually verified by the experimenter, blinded to the genotype of the animals. […] To compare the EEG spectral characteristics of hippocampal electrical activities, EEG spectral power in 1 Hz bins was calculated using FFT (Hamming window) of each 4 s epoch. […]
Cholinergic and noncholinergic theta rhythms associated with different behaviors were recorded. […] Non-cholinergic type I theta rhythms were recorded from mice walking in an open chamber or running on a wheel. […]

PLC-β4^−/− mice [6] = test: Three anxiety behavioral assays after rivastigmine (overall); type: in vivo; conditions: 0.5 mg/kg i.p., 60 min after injection
Method: as §1, §2

Q: What does the source list for CCN(C)C(=O)Oc1cccc([C@H](C)N(C)C)c1 [rivastigmine]?
A: increase of hippocampus acetylcholine concentration [1]: about 100%; locomotion in the center of the open field (PLC-β4^−/− mice [2]): wild-type levels of locomotion in the center of the open field; thigmotaxis index (PLC-β4^−/− mice [2]): reduced thigmotaxis index to the same levels as those in wild-type mice injected with saline; time spent in the central sector of the open field (PLC-β4^−/− mice [2]): levels comparable with those in wild-type mice injected with saline; total locomotion activities in the open field (PLC-β4^−/− mice [2]): wild-type levels of total locomotion activities; time in the light chamber (PLC-β4^−/− mice [3]): indistinguishable from that of wild-type mice injected with saline; transitions between light and dark boxes (PLC-β4^−/− mice [3]): indistinguishable from that of wild-type mice injected with saline; entries into the open arms (PLC-β4^−/− mice [4]): indistinguishable from wild-type mice injected with saline; total entries into the closed and open arms (PLC-β4^−/− mice [4]; three groups): did not differ among the three groups; amplitude of the cholinergic theta rhythms (PLC-β4^−/− mice [5]; alert immobility, novel environment): restored to a level similar to that of the wild-type mice injected with saline; amplitude of non-cholinergic type I theta rhythms (PLC-β4^−/− mice [5]; recorded during locomotion (walking) in new open field, vs saline-injected KO and WT mice): not significantly different among the three groups; increased anxiety phenotype in each of the three anxiety tests (PLC-β4^−/− mice [6]): showed a reversal of the increased anxiety phenotype
